The target in one series is T1, SbzB (Streptomyces sp., UniProt P0DY32).
T1 construct: pET28a NdeI/HindIII, His-tagged, E. coli Rosetta2 (DE3), Ni-NTA
T1 sequence (P0DY32 1-532): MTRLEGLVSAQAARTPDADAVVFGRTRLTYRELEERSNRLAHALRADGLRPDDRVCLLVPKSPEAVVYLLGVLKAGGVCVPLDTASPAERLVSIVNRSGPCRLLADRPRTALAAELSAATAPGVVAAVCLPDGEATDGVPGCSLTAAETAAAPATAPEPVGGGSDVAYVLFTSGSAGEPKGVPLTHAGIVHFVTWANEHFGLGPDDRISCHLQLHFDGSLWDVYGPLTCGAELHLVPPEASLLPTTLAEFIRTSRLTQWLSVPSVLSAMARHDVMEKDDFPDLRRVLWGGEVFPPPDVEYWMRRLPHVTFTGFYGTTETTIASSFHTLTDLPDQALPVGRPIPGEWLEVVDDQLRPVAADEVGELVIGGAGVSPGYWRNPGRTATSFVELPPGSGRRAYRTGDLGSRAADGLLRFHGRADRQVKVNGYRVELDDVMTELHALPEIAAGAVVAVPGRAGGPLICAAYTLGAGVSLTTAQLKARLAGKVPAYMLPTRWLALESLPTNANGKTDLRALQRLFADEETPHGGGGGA
In words: malachite green adenylation assay with hydroxylamine; chiral HPLC. Particulars: 0.5 mM ATP, 10 mM MgCl2, Tris-HCl pH 7.5, 30 °C. Format: biochemical.

Substrate in series [1]: N[C@@H](CS)C(=O)O
Briefly: LC-MS quantification of substrate consumption. Format: biochemical, Streptomyces sp. Conditions: 50 mM Tris pH 9.0, 30 °C, TCEP, 6 μM SbzM, 2 min, n = 2.

Take `C[C@H](c1ccccc1)[C@H](N)C(=O)O` [(2S, 3R)-β-methylphenylalanine]: the “malachite green adenylation assay with hydroxylamine; chiral HPLC” value on SbzB is “SbzB indeed selectively adenylated (2S, 3R)-β-methylphenylalanine as the best substrate”.

B1: SbzM (Streptomyces sp.) (protein)
chain: MSTQQVIAMLTEELHDLDPAERQAKTVELLAVFGRAKAEALQPEERPEAPDTKPGPLLICDWAADLGLDGTTQQLGIEVAPGPTKVTKTADATGHSLASSGHVGADILHVPAGSGFAPHTHPGDHLLFVLAGTGTIAVAGEIVRTRPGQVYMVQGDITHAVGAVTDHMILSVGAPHRRLDSPDRQELTAYAALLGELGEITCRLCDISAAGGEELAAKGCTHSPHRFG
notes: pET28a NdeI/HindIII, His-tagged, E. coli Rosetta2 (DE3), Ni-NTA; tag cleavage not mentioned
Take B1: in series [1], the Km – broadly, the substrate concentration at which the rate is half of its maximum – was 530 ± 80 µM.

(Values after paper PMC6331615, “Aminoacyl sulfonamide assembly in SB-203208 biosynthesis” (Nature Communications, 2019).)
